From ChEMBL document CHEMBL4219269, “Synthesis and anti-staphylococcal activity of novel bacterial topoisomerase inhibitors with a 5-amino-1,3-dioxane linker moiety” (Bioorg Med Chem Lett, 2018)
Converted amounts (≈) assume the structure as drawn.

Assays:
Staphylococcus aureus [1] = assay: Antibacterial activity against methicillin-sensitive Staphylococcus aureus ATCC 29213 by CLSI method; format: functional
[2] = biological target: T1, Voltage-gated inwardly rectifying potassium channel KCNH2 (Homo sapiens, UniProt Q12809); assay: Inhibition of human ERG expressed in CHOK1 cells by patch clamp assay; format: cell-based
T1 sequence (Q12809 whole entry): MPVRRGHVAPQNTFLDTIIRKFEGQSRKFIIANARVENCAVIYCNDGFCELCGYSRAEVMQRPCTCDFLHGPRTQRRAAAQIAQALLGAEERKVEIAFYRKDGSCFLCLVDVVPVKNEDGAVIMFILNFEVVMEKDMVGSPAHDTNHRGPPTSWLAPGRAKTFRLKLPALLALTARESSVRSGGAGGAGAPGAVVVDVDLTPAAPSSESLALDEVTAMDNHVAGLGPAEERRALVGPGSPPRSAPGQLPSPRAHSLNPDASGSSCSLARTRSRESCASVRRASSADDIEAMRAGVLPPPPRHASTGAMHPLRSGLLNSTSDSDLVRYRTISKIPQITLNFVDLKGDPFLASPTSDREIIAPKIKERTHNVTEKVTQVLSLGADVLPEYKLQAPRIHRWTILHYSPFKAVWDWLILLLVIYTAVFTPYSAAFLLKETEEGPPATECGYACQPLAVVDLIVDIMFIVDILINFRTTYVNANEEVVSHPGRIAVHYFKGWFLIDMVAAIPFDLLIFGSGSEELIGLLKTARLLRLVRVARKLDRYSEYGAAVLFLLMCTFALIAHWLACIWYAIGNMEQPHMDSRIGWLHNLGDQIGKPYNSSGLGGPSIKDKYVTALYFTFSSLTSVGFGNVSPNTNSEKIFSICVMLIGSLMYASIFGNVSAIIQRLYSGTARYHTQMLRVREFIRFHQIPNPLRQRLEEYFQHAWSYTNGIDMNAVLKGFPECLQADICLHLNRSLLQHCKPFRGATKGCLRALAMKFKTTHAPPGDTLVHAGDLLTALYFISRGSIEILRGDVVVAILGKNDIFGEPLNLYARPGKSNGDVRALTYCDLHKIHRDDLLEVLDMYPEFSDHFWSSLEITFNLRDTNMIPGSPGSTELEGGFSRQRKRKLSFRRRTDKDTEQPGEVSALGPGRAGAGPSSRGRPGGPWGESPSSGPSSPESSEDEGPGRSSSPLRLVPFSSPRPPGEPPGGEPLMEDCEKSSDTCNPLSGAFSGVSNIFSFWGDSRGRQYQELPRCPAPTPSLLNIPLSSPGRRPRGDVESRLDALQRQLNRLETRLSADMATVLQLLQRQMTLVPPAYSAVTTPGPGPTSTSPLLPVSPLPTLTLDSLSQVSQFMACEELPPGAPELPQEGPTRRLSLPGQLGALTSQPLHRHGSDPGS

Staphylococcus aureus [3] = assay: Antibacterial activity against methicillin-resistant Staphylococcus aureus USA300 by CLSI method; format: functional
[4] = Inhibition of Staphylococcus aureus topoisomerase-4-mediated kinetoplast DNA decatenation after 30 mins by agarose gel electrophoresis
K562 = assay: Antiproliferative activity against human K562 cells; format: cell-based
[5] = Inhibition of human topoisomerase-2 in etoposide-resistant K/VP.5 cells assessed as growth inhibition
Homo sapiens = organism: Homo sapiens; assay: Inhibition of human topoisomerase-2 mediated kinetoplast DNA decatenation assessed as remaining activity at 100 uM relative to control
[6] = Selectivity ratio of IC50 for human K562 cells to MIC for methicillin-sensitive Staphylococcus aureus ATCC 29213; format: toxicity
[7] = biological target: T1, Voltage-gated inwardly rectifying potassium channel KCNH2; assay: Inhibition of human ERG expressed in CHO cells using -80 mV holding potential measured after 3 mins; format: cell-based
DNA gyrase = DNA gyrase (Staphylococcus aureus, UniProt P0A0K8+P20831); assay: Inhibition of Staphylococcus aureus DNA gyrase supercoiling activity using pBR322 as substrate after 30 mins by agarose gel electrophoresis; format: protein-complex assay
Sequence of DNA gyrase (P0A0K8 whole entry): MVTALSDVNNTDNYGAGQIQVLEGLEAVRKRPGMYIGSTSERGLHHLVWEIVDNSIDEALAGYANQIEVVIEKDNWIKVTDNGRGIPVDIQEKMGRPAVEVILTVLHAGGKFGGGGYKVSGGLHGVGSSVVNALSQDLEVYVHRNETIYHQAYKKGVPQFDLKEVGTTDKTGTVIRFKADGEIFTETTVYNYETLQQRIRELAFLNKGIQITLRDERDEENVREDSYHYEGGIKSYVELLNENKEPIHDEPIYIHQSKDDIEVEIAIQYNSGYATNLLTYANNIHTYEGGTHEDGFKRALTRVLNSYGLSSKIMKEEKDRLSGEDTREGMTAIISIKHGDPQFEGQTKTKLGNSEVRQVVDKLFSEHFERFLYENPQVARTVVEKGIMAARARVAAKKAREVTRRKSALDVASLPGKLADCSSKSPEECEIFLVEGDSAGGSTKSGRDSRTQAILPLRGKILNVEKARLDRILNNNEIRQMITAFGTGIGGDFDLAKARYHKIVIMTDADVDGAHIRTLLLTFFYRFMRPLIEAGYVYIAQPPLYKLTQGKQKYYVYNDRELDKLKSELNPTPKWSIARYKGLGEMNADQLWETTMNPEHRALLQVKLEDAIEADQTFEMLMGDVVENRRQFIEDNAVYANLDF
Sequence of DNA gyrase (P20831 whole entry): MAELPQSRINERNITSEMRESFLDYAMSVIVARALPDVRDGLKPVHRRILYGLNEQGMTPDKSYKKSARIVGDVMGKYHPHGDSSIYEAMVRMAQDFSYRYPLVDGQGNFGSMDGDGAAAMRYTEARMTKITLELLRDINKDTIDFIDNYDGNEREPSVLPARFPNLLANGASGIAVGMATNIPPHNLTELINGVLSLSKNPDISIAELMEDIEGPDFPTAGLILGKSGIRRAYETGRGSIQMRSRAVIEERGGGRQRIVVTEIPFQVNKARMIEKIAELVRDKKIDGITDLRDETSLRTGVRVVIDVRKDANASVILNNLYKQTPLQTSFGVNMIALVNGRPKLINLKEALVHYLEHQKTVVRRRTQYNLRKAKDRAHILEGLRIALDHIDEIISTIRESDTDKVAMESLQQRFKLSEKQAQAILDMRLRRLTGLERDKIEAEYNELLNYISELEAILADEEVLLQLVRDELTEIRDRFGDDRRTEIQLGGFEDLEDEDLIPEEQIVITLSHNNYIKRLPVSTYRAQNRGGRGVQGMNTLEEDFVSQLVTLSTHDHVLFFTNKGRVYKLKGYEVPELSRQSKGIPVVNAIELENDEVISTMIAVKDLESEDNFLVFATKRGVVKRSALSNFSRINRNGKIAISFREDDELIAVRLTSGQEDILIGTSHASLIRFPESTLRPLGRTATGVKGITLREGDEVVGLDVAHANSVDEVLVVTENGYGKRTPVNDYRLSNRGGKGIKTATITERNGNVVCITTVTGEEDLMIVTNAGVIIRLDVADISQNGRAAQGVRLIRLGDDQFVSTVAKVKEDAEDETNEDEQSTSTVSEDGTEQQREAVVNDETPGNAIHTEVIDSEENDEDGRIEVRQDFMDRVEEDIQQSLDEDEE

SMILES	MIC (Staphylococcus aureus [1]) [µg/mL]	IC50 [2] [µM]	MIC (Staphylococcus aureus [3]) [µg/mL]	IC50 [4] [µM]	IC50 (K562) [µM]	IC50 [5] [µM]	Activity (Homo sapiens) [%]	further results
COc1ccc2nccc(CC[C@H]3OC[C@H](NCc4ccc5c(c4)OCCO5)CO3)c2c1	0.25 to 1 (≈ 0.573 to 2.29 µM)	5.1	0.5 (≈ 1.15 µM)	14	7.4	8.8	84.2	selectivity ratio [6]: 3.5
COc1ccc2nccc(CCN3CCC(NCc4cc5c(cn4)OCCO5)CC3)c2c1	–	1.9	–	–	28	22	–	–
CN[C@H](CC(C)C)C(=O)N[C@H]1C(=O)N[C@@H](CC(N)=O)C(=O)N[C@H]2C(=O)N[C@H]3C(=O)N[C@H](C(=O)N[C@H](C(=O)O)c4cc(O)cc(O)c4-c4cc3ccc4O)[C@H](O)c3ccc(c(Cl)c3)Oc3cc2cc(c3O[C@@H]2O[C@H](CO)[C@@H](O)[C@H](O)[C@H]2O[C@H]2C[C@](C)(N)[C@H](O)[C@H](C)O2)Oc2ccc(cc2Cl)[C@H]1O [VANCOMYCIN]	–	–	1 to 2 (≈ 0.69 to 1.38 µM)	–	–	–	–	–
COc1ccc2nccc(CC[C@H]3OC[C@H](NCc4ccccn4)CO3)c2c1	8 (≈ 21.1 µM)	–	–	–	–	–	–	–
COc1ccc2nccc(CC[C@H]3OC[C@H](NCc4cccnc4)CO3)c2c1	> 64	–	–	–	–	–	–	–
COc1ccc2nccc(CC[C@H]3OC[C@H](NCc4ccc5c(n4)NC(=O)CO5)CO3)c2c1	0.5 (≈ 1.11 µM)	2.5	1 (≈ 2.22 µM)	> 100	24	44	99.1	–
O=C(O)c1cn(C2CC2)c2cc(N3CCNCC3)c(F)cc2c1=O [CIPROFLOXACIN]	–	–	–	14.3	–	–	85.5	–
COc1ccc2nccc(CC[C@H]3OC[C@H](NCc4ccc(Cl)cn4)CO3)c2c1	8 (≈ 19.3 µM)	–	–	–	–	–	–	–
COc1ccc2nccc(CC[C@H]3OC[C@H](NCc4ccc5c(n4)NC(=O)CS5)CO3)c2c1	0.5 (≈ 1.07 µM)	1.3	0.5 (≈ 1.07 µM)	> 100	31	34	91.1	–
COc1ccc2nccc(CC[C@H]3CC[C@H](NCc4ccc5c(n4)NC(=O)CO5)CC3)c2c1	–	0.41	–	–	12	11	–	–
COc1ccc2nccc(CC[C@H]3OC[C@H](NCc4cc5c(cn4)OCCO5)CO3)c2c1	1 to 2 (≈ 2.29 to 4.57 µM)	9.5	2 (≈ 4.57 µM)	50	40	48	95.1	–
COc1ccc2nccc(CC[C@H]3OC[C@H](NCc4ccccc4Cl)CO3)c2c1	> 64	–	–	–	–	–	–	–
COc1ccc2nccc(CCN3CCC(NCc4ccc5c(n4)NC(=O)CO5)CC3)c2c1	–	3.8	–	–	19	16	–	–
O=c1ccc2ncc(=O)n3c2n1C[C@H]3CN1CCC(NCc2cc3c(cn2)OCCC3)CC1 [GEPOTIDACIN]	–	–	–	–	–	–	–	IC50 [7]: 1310 µM
COc1ccc2nccc(CC[C@H]3OC[C@H](NCc4ccc(Cl)c(Cl)c4)CO3)c2c1	–	4.8	0.5 (≈ 1.12 µM)	> 100	20	15	93.2	–
COc1ccc2nccc(CC[C@H]3OC[C@H](NCc4ccccc4)CO3)c2c1	> 64	–	–	–	–	–	–	–
COc1ccc2nccc(CCN3CCC(NCc4ccc(Cl)c(Cl)c4)CC3)c2c1	–	1	–	–	–	–	–	–
COc1ccc2nccc(CCN3CCC(NCc4ccc5c(c4)OCCO5)CC3)c2c1	–	0.81	–	–	10	12	–	–
COc1ccc2nccc(CC[C@H]3OC[C@H](NCc4ccc5c(c4)NC(=O)CO5)CO3)c2c1	1 to 2 (≈ 2.22 to 4.45 µM)	–	1 (≈ 2.22 µM)	> 100	–	–	–	–
COc1cc([C@@H]2c3cc4c(cc3[C@@H](O[C@@H]3O[C@@H]5CO[C@@H](C)O[C@H]5[C@H](O)[C@H]3O)[C@H]3COC(=O)[C@H]23)OCO4)cc(OC)c1O [ETOPOSIDE]	–	–	–	–	0.3	5.1	33.6	–
COc1ccc2nccc(CC[C@H]3OC[C@H](NCc4cccc(Cl)c4)CO3)c2c1	32 (≈ 77.5 µM)	–	–	–	–	–	–	–
COc1ccc2nccc(CC[C@H]3OC[C@H](NCc4ccc(Cl)cc4)CO3)c2c1	1 (≈ 2.42 µM)	2	4 (≈ 9.69 µM)	> 100	12	16	97.8	IC50 (DNA gyrase): 1.2 µM
COc1ccc2nccc(CC[C@H]3CC[C@H](NCc4cc5c(cn4)OCCO5)CC3)c2c1	–	0.94	–	–	7.5	5.7	–	–
COc1ccc2nccc(CC[C@H]3CC[C@H](NCc4ccc5c(c4)OCCO5)CC3)c2c1	–	0.26	–	–	4.2	4.5	–	–
COc1ccc2nccc(CC[C@H]3CC[C@H](NCc4ccc(Cl)c(Cl)c4)CC3)c2c1	–	2.3	–	–	–	–	–	–
COc1ccc2nccc(CC[C@H]3OC[C@H](NCc4cc5c(cn4)OCCC5)CO3)c2c1	1 (≈ 2.3 µM)	12	2 (≈ 4.59 µM)	25 to 50	32	40	93.8	–
